In PubChem BioAssay AID248 (DTP/NCI, 2004):
“And” between values parts separate entries of the source, which are not always exact repeats. Identical values can stand only once. Toxic doses and inconclusive results are not listed. No stated cut-off is given here; in the data, active means T/C of 150% or more; inactive means T/C below 125%.

System: L1210 leukemia ip in BDF1 mice, survival T/C
Experiment: NCI In Vivo Anticancer Drug Screen. Data for tumor model L1210 Leukemia (intraperitoneal) in B6D2F1 (BDF1) mice
Conditions: endpoint: mean survival time, higher = longer survival
How it was run: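 Transplanted-tumor mice were given test agent; controls received vehicle only. Survival readings from the two groups were divided (treated over control).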

[1] = dose: 25.0 mg/kg/injection, schedule: Q01DX009 (ip), vehicle: saline with Tween-80
[2] = dose: 100.0 mg/kg/injection, schedule: Q01DX009 (ip), vehicle: Klucel (hydroxypropylcellulose) (HPC)
[3] = dose: 100.0 mg/kg/injection, schedule: Q04DX003 (ip), vehicle: Klucel (hydroxypropylcellulose) (HPC)
[4] = dose: 200.0 mg/kg/injection, schedule: Q01DX009 (ip), vehicle: Klucel (hydroxypropylcellulose) (HPC)
[5] = dose: 200.0 mg/kg/injection, schedule: Q04DX003 (ip), vehicle: Klucel (hydroxypropylcellulose) (HPC)
[6] = dose: 400.0 mg/kg/injection, schedule: Q04DX003 (ip), vehicle: Klucel (hydroxypropylcellulose) (HPC)
[7] = dose: 100.0 mg/kg/injection, schedule: Q01DX009 (ip), vehicle: saline with Tween-80
[8] = dose: 100.0 mg/kg/injection, schedule: Q04DX003 (ip), vehicle: saline with Tween-80
[9] = dose: 200.0 mg/kg/injection, schedule: Q04DX003 (ip), vehicle: saline with Tween-80
[10] = dose: 400.0 mg/kg/injection, schedule: Q01DX009 (ip), vehicle: saline with Tween-80
[11] = dose: 400.0 mg/kg/injection, schedule: Q04DX003 (ip), vehicle: saline with Tween-80
[12] = dose: 25.0 mg/kg/injection, schedule: Q01DX009 (ip), vehicle: Klucel (hydroxypropylcellulose) (HPC)
[13] = dose: 25.0 mg/kg/injection, schedule: Q04DX003 (ip), vehicle: Klucel (hydroxypropylcellulose) (HPC)
[14] = dose: 50.0 mg/kg/injection, schedule: Q04DX003 (ip), vehicle: Klucel (hydroxypropylcellulose) (HPC)
[15] = dose: 50.0 mg/kg/injection, schedule: Q01DX009 (ip), vehicle: Klucel (hydroxypropylcellulose) (HPC)
[16] = dose: 100.0 mg/kg/injection, schedule: Q04DX002 (ip), vehicle: Klucel (hydroxypropylcellulose) (HPC)
[17] = dose: 200.0 mg/kg/injection, schedule: Q04DX002 (ip), vehicle: Klucel (hydroxypropylcellulose) (HPC)

Measured: T/C

CN(C)CCC(C=NCC(CCN(C)C)(CCN(C)C)c1cccc2ccccc12)(CCN(C)C)c1cccc2ccccc12
inactive: dose: 12.5 mg/kg/injection, schedule: Q01DX009 (ip), vehicle: saline with Tween-80 90 % of control | dose: 12.5 mg/kg/injection, schedule: Q04DX003 (ip), vehicle: saline with Tween-80 102 % of control | [1] 91 % of control | dose: 25.0 mg/kg/injection, schedule: Q04DX003 (ip), vehicle: saline with Tween-80 98 % of control

Cc1ccc2c3csc4ccccc4c-3nc2c1
inactive: dose: 6.25 mg/kg/injection, schedule: Q01DX009 (ip), vehicle: saline 101 % of control | dose: 12.5 mg/kg/injection, schedule: Q01DX009 (ip), vehicle: saline 95 % of control | dose: 12.5 mg/kg/injection, schedule: Q04DX003 (ip), vehicle: saline 93 % of control | dose: 25.0 mg/kg/injection, schedule: Q04DX003 (ip), vehicle: saline 92 % of control

Cc1ccc2c(c1)C1CCC3(CC1OC2(C)C)OC(C)(C)c1cc(C)ccc13 (stereo not given)
inactive: [2] 95 % of control | [3] 105 % of control | [4] 89 % of control | [5] 95 % of control | [6] 95 % of control

COc1cccc(/C=C2\N=C(c3ccccc3)OC2=O)c1
inactive: [7] 102 % of control | [8] 97 % of control | dose: 200.0 mg/kg/injection, schedule: Q01DX009 (ip), vehicle: saline with Tween-80 107 % of control | [9] 94 % of control | [10] 102 % of control and 90 % of control | [11] 93 % of control

c1cc[nH]c1
inactive: dose: 75.0 mg/kg/injection, schedule: Q01DX001 (ip), vehicle: saline 100 % of control

COc1ccc(C(=O)CBr)c(OC)c1C
inactive: dose: 12.5 mg/kg/injection, schedule: Q01DX009 (ip), vehicle: Klucel (hydroxypropylcellulose) (HPC) 94 % of control | dose: 12.5 mg/kg/injection, schedule: Q04DX003 (ip), vehicle: Klucel (hydroxypropylcellulose) (HPC) 100 % of control | [12] 91 % of control | [13] 105 % of control | [14] 96 % of control

NC(N)=N/N=C/c1cccc(O)c1
inactive: dose: 63.0 mg/kg/injection, schedule: Q01DX Z (ip), vehicle: saline 112 % of control | dose: 125.0 mg/kg/injection, schedule: Q01DX Z (ip), vehicle: saline 102 % of control

O=C1NC(c2ccccc2Cl)Nc2ccccc21 (stereo not given)
inactive: [15] 103 % of control | [2] 101 % of control | dose: 150.0 mg/kg/injection, schedule: Q01DX009 (ip), vehicle: Klucel (hydroxypropylcellulose) (HPC) 97 % of control

CC(=O)NNC(=O)c1cccnc1
inactive: dose: 100.0 mg/kg/injection, schedule: Q01DX001 (ip), vehicle: water 95 % of control | dose: 100.0 mg/kg/injection, schedule: Q01DX009 (ip), vehicle: water 95 % of control | dose: 200.0 mg/kg/injection, schedule: Q01DX001 (ip), vehicle: water 104 % of control | dose: 200.0 mg/kg/injection, schedule: Q01DX009 (ip), vehicle: water 101 % of control | dose: 400.0 mg/kg/injection, schedule: Q01DX001 (ip), vehicle: water 101 % of control | dose: 400.0 mg/kg/injection, schedule: Q01DX009 (ip), vehicle: water 116 % of control | dose: 800.0 mg/kg/injection, schedule: Q01DX009 (ip), vehicle: water 116 % of control

O=C(Oc1ccc(S(=O)(=O)F)cc1Cl)c1ccc([N+](=O)[O-])cc1
inactive: [16] 118 % of control | [17] 96 % of control | dose: 400.0 mg/kg/injection, schedule: Q04DX002 (ip), vehicle: Klucel (hydroxypropylcellulose) (HPC) 96 % of control

O=Nc1ccc(O)cc1
inactive: [12] 96 % of control | dose: 25.0 mg/kg/injection, schedule: Q04DX002 (ip), vehicle: Klucel (hydroxypropylcellulose) (HPC) 104 % of control | [13] 102 % of control | [15] 102 % of control and 103 % of control | dose: 50.0 mg/kg/injection, schedule: Q04DX002 (ip), vehicle: Klucel (hydroxypropylcellulose) (HPC) 100 % of control | [14] 98 % of control | [2] 112 % of control and 123 % of control | [16] 104 % of control | [3] 100 % of control | [4] 100 % of control and 110 % of control | [17] 103 % of control | [5] 104 % of control

Nc1nc2c(nc([Se])n2C2OC(CO)C(O)C2O)c(=O)[nH]1 (stereo not given)
inactive: dose: 100.0 mg/kg/injection, schedule: Q01DX005 (ip), vehicle: saline 98 % of control | dose: 200.0 mg/kg/injection, schedule: Q01DX005 (ip), vehicle: saline 98 % of control

Nc1ccc2c(c1)[nH]c(=O)c1cc(Br)ccc12
inactive: dose: 100.0 mg/kg/injection, schedule: Q01DX001 (ip), vehicle: carboxymethylcellulose (CMC) 104 % of control | dose: 200.0 mg/kg/injection, schedule: Q01DX001 (ip), vehicle: carboxymethylcellulose (CMC) 100 % of control | dose: 400.0 mg/kg/injection, schedule: Q01DX001 (ip), vehicle: carboxymethylcellulose (CMC) 102 % of control

CCCCCC1(C)OCC(CCl)O1 (stereo not given)
inactive: dose: 222.0 mg/kg/injection, schedule: Q01DX Z (ip), vehicle: saline 107 % of control | dose: 333.0 mg/kg/injection, schedule: Q01DX Z (ip), vehicle: saline 97 % of control | dose: 500.0 mg/kg/injection, schedule: Q01DX Z (ip), vehicle: saline 89 % of control

C/C=C(/Cl)c1c(C)cc(C)cc1C
inactive: [1] 91 % of control | dose: 50.0 mg/kg/injection, schedule: Q01DX009 (ip), vehicle: saline with Tween-80 98 % of control | [7] 89 % of control and 91 % of control | [8] 101 % of control | [9] 98 % of control | [10] 98 % of control | [11] 101 % of control

CC(=O)OC1=C(c2c(C)cc(C)c(Br)c2C)C(=O)C(OC(C)=O)=C(c2c(C)cc(C)c(Br)c2C)C1=O
inactive: [3] 104 % of control | [5] 100 % of control | [6] 98 % of control

COc1cccc(/C(=C/c2ccc([N+](=O)[O-])cc2)C(=O)O)c1
inactive: dose: 100.0 mg/kg/injection, schedule: Q01DX001 (ip), vehicle: Klucel (hydroxypropylcellulose) (HPC) 100 % of control | [2] 97 % of control and 100 % of control | [3] 100 % of control | dose: 200.0 mg/kg/injection, schedule: Q01DX001 (ip), vehicle: Klucel (hydroxypropylcellulose) (HPC) 109 % of control | [4] 96 % of control and 87 % of control | [5] 105 % of control | dose: 400.0 mg/kg/injection, schedule: Q01DX001 (ip), vehicle: Klucel (hydroxypropylcellulose) (HPC) 97 % of control | dose: 400.0 mg/kg/injection, schedule: Q01DX009 (ip), vehicle: Klucel (hydroxypropylcellulose) (HPC) 100 % of control and 91 % of control | [6] 105 % of control

Cc1ccc(S(=O)(=O)N(c2ccccc2)C(C)C(=O)c2ccccc2)cc1 (stereo not given)
inactive: dose: 100.0 mg/kg/injection, schedule: Q01DX001 (ip), vehicle: other 104 % of control | dose: 200.0 mg/kg/injection, schedule: Q01DX001 (ip), vehicle: other 92 % of control | dose: 400.0 mg/kg/injection, schedule: Q01DX001 (ip), vehicle: other 95 % of control

COP(=S)(N/N=C/c1ccccn1)OC
inactive: [8] 106 % of control | [9] 97 % of control | [11] 108 % of control
